Assays:
[1] = target: CDK2/Cyclin A2 (Homo sapiens) (UniProt P24941+P20248); assay: Inhibition of full length human CDK2/cyclin A assessed as residual activity at 10 uM using histone H1 as substrate in presence of [gamma-33P]ATP; type: protein-complex assay
KM12 = assay: Cytotoxicity against human KM12 cells assessed as cell growth at 10 uM after 48 hrs by SRB assay relative to control; type: functional; conditions: KM12, 48 h, read-out: Activity
NCI-H226 = assay: Cytotoxicity against human NCI-H226 cells assessed as cell growth at 10 uM after 48 hrs by SRB assay relative to control; type: functional; conditions: NCI-H226, 48 h, read-out: Activity
UACC-257 = assay: Cytotoxicity against human UACC257 cells assessed as cell growth at 10 uM after 48 hrs by SRB assay relative to control; type: functional; conditions: UACC-257, 48 h, read-out: Activity
HCT-15 = assay: Cytotoxicity against human HCT15 cells assessed as cell growth at 10 uM after 48 hrs by SRB assay relative to control; type: functional; conditions: HCT-15, 48 h, read-out: Activity
SK-MEL-5 = assay: Cytotoxicity against human SK-MEL-5 cells assessed as cell growth at 10 uM after 48 hrs by SRB assay relative to control; type: functional; conditions: SK-MEL-5, 48 h, read-out: Activity
SNB-19 = assay: Cytotoxicity against human SNB19 cells assessed as cell growth at 10 uM after 48 hrs by SRB assay relative to control; type: functional; conditions: SNB-19, 48 h, read-out: Activity
HOP-62 = assay: Cytotoxicity against human HOP62 cells assessed as cell growth at 10 uM after 48 hrs by SRB assay relative to control; type: functional; conditions: HOP-62, 48 h, read-out: Activity
786-0 = assay: Cytotoxicity against human 786-O cells assessed as cell growth at 10 uM after 48 hrs by SRB assay relative to control; type: functional; conditions: 786-0, 48 h, read-out: Activity
[2] = target: Dual specificity tyrosine-phosphorylation-regulated kinase 1A (Rattus norvegicus) (UniProt Q63470); assay: Inhibition of recombinant rat DYRK1A kinase domain expressed in bacteria assessed as residual activity at 10 uM using KKISGRLSPIMTEQ as substrate in presence of [gamma-33P]ATP
CAKI-1 = assay: Cytotoxicity against human Caki1 cells assessed as cell growth at 10 uM after 48 hrs by SRB assay relative to control; type: functional; conditions: CAKI-1, 48 h, read-out: Activity
A549 = assay: Cytotoxicity against human A549 cells assessed as cell growth at 10 uM after 48 hrs by SRB assay relative to control; type: functional; conditions: A549, 48 h, read-out: Activity
OVCAR-5 = assay: Cytotoxicity against human OVCAR5 cells assessed as cell growth at 10 uM after 48 hrs by SRB assay relative to control; type: functional; conditions: OVCAR-5, 48 h, read-out: Activity
IGROV-1 = assay: Cytotoxicity against human IGROV1 cells assessed as cell growth at 10 uM after 48 hrs by SRB assay relative to control; type: functional; conditions: IGROV-1, 48 h, read-out: Activity
LOX IMVI = assay: Cytotoxicity against human LOXIMVI cells assessed as cell growth at 10 uM after 48 hrs by SRB assay relative to control; type: functional; conditions: read-out: Activity
[3] = target: Glycogen synthase kinase-3 (Sus scrofa) (UniProt B2LUN4+I6LNT8); assay: Inhibition of domestic porcine brain full length GSK-3alpha/beta assessed as residual activity at 10 uM using GS-1 as substrate in presence of [gamma-33P]ATP; conditions: Sus scrofa domesticus
BT-549 = assay: Cytotoxicity against human BT549 cells assessed as cell growth at 10 uM after 48 hrs by SRB assay relative to control; type: functional; conditions: BT-549, 48 h, read-out: Activity
SNB-75 = assay: Cytotoxicity against human SNB75 cells assessed as cell growth at 10 uM after 48 hrs by SRB assay relative to control; type: functional; conditions: SNB-75, 48 h, read-out: Activity
SF-268 = assay: Cytotoxicity against human SF268 cells assessed as cell growth at 10 uM after 48 hrs by SRB assay relative to control; type: functional; conditions: SF-268, 48 h, read-out: Activity
[4] = target: T1, Serine/threonine-protein kinase haspin (Homo sapiens, UniProt Q8TF76); assay: Inhibition of recombinant human haspin kinase domain expressed in bacteria using histone H3 (1 to 21 residues) peptide as substrate in presence of [gamma-33P]ATP
T1 sequence (Q8TF76 whole entry): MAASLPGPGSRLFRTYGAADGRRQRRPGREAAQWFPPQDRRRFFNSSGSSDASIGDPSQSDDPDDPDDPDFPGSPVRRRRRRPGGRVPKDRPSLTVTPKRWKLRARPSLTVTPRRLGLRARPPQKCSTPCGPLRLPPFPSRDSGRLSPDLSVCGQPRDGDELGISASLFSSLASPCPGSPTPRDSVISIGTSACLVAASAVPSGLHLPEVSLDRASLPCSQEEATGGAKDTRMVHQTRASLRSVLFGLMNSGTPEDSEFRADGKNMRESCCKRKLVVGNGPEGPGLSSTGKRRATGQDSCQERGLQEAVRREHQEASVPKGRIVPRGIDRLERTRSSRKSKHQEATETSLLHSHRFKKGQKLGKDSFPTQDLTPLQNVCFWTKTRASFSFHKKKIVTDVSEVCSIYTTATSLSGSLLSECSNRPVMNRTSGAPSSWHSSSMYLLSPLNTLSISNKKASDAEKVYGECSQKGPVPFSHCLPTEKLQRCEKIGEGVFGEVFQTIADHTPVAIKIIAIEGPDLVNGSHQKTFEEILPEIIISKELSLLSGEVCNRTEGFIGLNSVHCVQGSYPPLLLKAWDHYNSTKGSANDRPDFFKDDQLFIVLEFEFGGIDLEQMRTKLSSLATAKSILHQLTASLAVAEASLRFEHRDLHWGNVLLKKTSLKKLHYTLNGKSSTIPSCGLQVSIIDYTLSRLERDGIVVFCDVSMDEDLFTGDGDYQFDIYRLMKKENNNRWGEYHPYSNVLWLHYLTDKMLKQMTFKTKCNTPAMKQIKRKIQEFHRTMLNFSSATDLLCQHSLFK

[5] = target: Serine/threonine-protein kinase pim-1 (Homo sapiens, UniProt P11309); assay: Inhibition of recombinant full length human PIM1 expressed in bacteria using histone H1 as substrate in presence of [gamma-33P]ATP
Chain of Serine/threonine-protein kinase pim-1 (P11309 whole entry): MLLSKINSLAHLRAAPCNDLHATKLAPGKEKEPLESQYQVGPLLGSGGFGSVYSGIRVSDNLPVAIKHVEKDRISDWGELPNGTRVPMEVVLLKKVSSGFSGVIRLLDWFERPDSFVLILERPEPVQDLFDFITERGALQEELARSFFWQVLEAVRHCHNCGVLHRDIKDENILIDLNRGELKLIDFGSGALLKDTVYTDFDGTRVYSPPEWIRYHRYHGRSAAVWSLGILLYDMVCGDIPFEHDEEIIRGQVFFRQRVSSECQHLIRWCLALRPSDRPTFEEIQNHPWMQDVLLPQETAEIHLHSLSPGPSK

[6] = target: Cyclin-dependent kinase 5/CDK5 activator 1 (Homo sapiens) (UniProt Q00535+Q15078); assay: Inhibition of recombinant full length human CDK5/p25 expressed in bacteria assessed as residual activity at 10 uM using histone H1 as substrate in presence of [gamma-33P]ATP
Chain of Cyclin-dependent kinase 5/CDK5 activator 1 (Homo sapiens) (Q00535 whole entry): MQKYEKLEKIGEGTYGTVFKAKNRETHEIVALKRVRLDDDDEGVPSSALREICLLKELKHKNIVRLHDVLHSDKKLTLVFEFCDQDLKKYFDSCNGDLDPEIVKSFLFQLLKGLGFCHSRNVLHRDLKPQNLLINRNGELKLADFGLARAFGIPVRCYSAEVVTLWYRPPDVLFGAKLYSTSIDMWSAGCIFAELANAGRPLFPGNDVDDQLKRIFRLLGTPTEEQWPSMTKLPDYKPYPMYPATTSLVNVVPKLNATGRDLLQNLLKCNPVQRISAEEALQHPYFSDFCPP
Chain of Cyclin-dependent kinase 5/CDK5 activator 1 (Homo sapiens) (Q15078 99-307 partner limits assumed): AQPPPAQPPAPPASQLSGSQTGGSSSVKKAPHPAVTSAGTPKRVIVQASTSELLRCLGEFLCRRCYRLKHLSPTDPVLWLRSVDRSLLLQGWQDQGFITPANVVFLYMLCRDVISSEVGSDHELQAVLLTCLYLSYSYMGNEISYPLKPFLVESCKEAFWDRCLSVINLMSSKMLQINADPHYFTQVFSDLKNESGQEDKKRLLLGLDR

OVCAR-4 = assay: Cytotoxicity against human OVCAR4 cells assessed as cell growth at 10 uM after 48 hrs by SRB assay relative to control; type: functional; conditions: OVCAR-4, 48 h, read-out: Activity
HOP-92 = assay: Cytotoxicity against human HOP92 cells assessed as cell growth at 10 uM after 48 hrs by SRB assay relative to control; type: functional; conditions: HOP-92, 48 h, read-out: Activity

| Structure (SMILES) | Activity [1] [%] | growth at 10 µM (KM12) [%] | growth at 10 µM (NCI-H226) [%] | growth at 10 µM (HCT-15) [%] | growth at 10 µM (SK-MEL-5) [%] | growth at 10 µM (HOP-62) [%] | Activity [2] [%] | growth at 10 µM (CAKI-1) [%] | growth at 10 µM (A549) [%] | growth at 10 µM (OVCAR-5) [%] | growth at 10 µM (IGROV-1) [%] | growth at 10 µM (LOX IMVI) [%] | Activity [3] [%] | growth at 10 µM (BT-549) [%] | growth at 10 µM (SNB-75) [%] | growth at 10 µM (SF-268) [%] | IC50 [4] [µM] | IC50 [5] [µM] | Activity [6] [%] | growth at 10 µM (OVCAR-4) [%] | further results |
| --- | --- | --- | --- | --- | --- | --- | --- | --- | --- | --- | --- | --- | --- | --- | --- | --- | --- | --- | --- | --- | --- |
| Cn1cc(C2=C(c3cn(CCCCCC#N)c4ccccc34)C(=O)N(O)C2=O)c2ccccc21 | 64 | 88.2 | 77.8 | 91.2 | 78.8 | 89.6 | 24 | 81.3 | 95.8 | 117 | 93.8 | 60.2 | 8 | 81.4 | 68 | 94.9 | > 10 | > 10 | 49 | 116 | growth at 10 µM (UACC-257): 110%; growth at 10 µM (SNB-19): 104%; growth at 10 µM (786-0): 83.7% |
| CC(C)n1cc(C2=C(c3c[nH]c4ccccc34)C(=O)N(O)C2=O)c2ccccc21 | 71 | 88.3 | 102 | 99.9 | 98.5 | 98.6 | 73 | 78.3 | 102 | 105 | 111 | 58.8 | 2 | 99.7 | 82.6 | 104 | > 10 | > 10 | 71 | 111 | growth at 10 µM (SNB-19): 111%; growth at 10 µM (786-0): 77.9% |
| N#CCCCCCn1cc(C2=C(c3cn(CCCCCC#N)c4ccccc34)C(=O)NC2=O)c2ccccc21 | 36 | 81 | 80.4 | 69.4 | 78.7 | 118 | 9 | 82.5 | 85.6 | 128 | 124 | 69.5 | 11 | 73.6 | 47.2 | 107 | > 10 | > 10 | 46 | 81.2 | growth at 10 µM (HOP-92): 142%; growth at 10 µM (UACC-257): 136% |
| O=C(O)CCCCCn1cc(C2=C(c3c[nH]c4ccccc34)C(=O)N(O)C2=O)c2ccccc21 | 66 | 95.6 | 92.5 | 97.3 | 93.9 | 86.8 | 24 | 92.2 | 98.2 | 106 | 93.4 | 80.4 | 8 | 99.9 | 86 | 98.3 | > 10 | > 10 | 60 | 113 | growth at 10 µM (UACC-257): 111%; growth at 10 µM (SNB-19): 107%; growth at 10 µM (786-0): 93% |
| O=C1C2=C(C(=O)N1O)c1cn(c3ccccc13)CCCCCCn1cc2c2ccccc21 | 89 | 107 | 101 | 108 | 99.6 | 107 | 107 | 95.7 | 108 | 98.2 | 113 | 79.3 | 48 | 97.6 | 91.4 | 105 | > 10 | > 10 | 91 | 113 | growth at 10 µM (HOP-92): 79.6%; growth at 10 µM (UACC-257): 106% |
| CC(C)n1cc(C2=C(c3cn(C)c4ccccc34)C(=O)N(O)C2=O)c2ccccc21 | 23 | 87.4 | 77.2 | 96.9 | 76.2 | 84.6 | 54 | 72.7 | 97.1 | 90.3 | 96.2 | 61.5 | -16 | 93.2 | 84.9 | 97.3 | > 10 | > 10 | 34 | 99.6 | growth at 10 µM (SNB-19): 101%; growth at 10 µM (786-0): 86.5% |
| Cn1cc(C2=C(c3c[nH]c4ccccc34)C(=O)N(O)C2=O)c2ccccc21 | 77 | 81.7 | 76.9 | 74.8 | 72 | 67.9 | 46 | 61.5 | 91.9 | 95 | 83 | 51 | -18 | 82.7 | 72.5 | 90.4 | > 10 | 5 | 66 | 103 | growth at 10 µM (SNB-19): 97.5%; growth at 10 µM (786-0): 82% |
| Cn1cc(C2=C(c3cn(C)c4ncccc34)C(=O)NC2=O)c2ccccc21 | -3 | 8.78 to 12 |  | 21 to 33.4 |  | 21 to 40.6 | 30 | 35 | 21 to 28.8 | 13 to 54.6 | 8 to 70.8 | 16 to 41 | -21 |  |  | 27 to 50.2 | > 10 | 2 | -1 | 34 to 59 | growth at 10 µM (HOP-92): 12%; growth at 10 µM (UACC-257): 35 to 84.8%; growth at 10 µM (SNB-19): 40 to 65%; growth at 10 µM (786-0): 12% |

From ChEMBL document CHEMBL4229455, “Synthesis and anticancer activity of novel bisindolylhydroxymaleimide derivatives with potent GSK-3 kinase inhibition” (Bioorg Med Chem, 2018)
